Test results published in ChEMBL document CHEMBL5728685, “Macrocycle containing aminopyrazole and pyrimidine and pharmaceutical composition and use thereof” (2021).

Target: High affinity nerve growth factor receptor (Homo sapiens, UniProt P04629)
Assay: Inhibition Assay: A testing platform for TrkAWT kinase activity was established based on Homogeneous Time-Resolved Fluorescence (HTRF) assay, and the activities of the compounds were tested using the platform. The compounds were subjected to five-fold gradient dilution for eight times with 100% DMSO with a starting concentration of 200 μM (9 concentrations in total). 4 μL of diluted sample for …

High affinity nerve growth factor receptor, sequence (P04629 whole entry): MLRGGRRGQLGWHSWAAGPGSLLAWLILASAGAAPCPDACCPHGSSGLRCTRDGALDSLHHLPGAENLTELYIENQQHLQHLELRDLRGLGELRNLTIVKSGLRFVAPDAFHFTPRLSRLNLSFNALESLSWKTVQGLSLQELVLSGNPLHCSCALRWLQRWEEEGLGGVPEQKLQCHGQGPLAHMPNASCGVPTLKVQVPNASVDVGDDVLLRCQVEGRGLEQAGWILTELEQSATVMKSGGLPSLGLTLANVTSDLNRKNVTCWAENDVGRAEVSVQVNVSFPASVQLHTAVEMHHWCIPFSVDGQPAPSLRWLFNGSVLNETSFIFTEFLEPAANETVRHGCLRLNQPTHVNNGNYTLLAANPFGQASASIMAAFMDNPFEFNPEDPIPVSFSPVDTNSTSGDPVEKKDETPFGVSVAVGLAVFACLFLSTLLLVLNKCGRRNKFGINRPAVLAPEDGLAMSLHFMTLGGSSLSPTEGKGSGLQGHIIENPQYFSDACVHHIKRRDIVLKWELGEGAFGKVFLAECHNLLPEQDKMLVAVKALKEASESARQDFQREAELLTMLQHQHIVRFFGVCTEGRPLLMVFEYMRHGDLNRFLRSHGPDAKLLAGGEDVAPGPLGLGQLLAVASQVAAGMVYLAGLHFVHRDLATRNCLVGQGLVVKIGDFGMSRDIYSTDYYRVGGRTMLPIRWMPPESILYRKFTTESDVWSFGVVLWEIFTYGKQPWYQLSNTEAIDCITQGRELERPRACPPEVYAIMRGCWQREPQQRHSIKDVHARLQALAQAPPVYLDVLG

Compound	IC50 [nM]
C[C@@H]1CCc2ncc(F)cc2[C@H]2C[C@H](F)CN2c2ccn3nc(N)c(c3n2)C(=O)N1	0.23
Nc1nn2ccc3nc2c1C(=O)NCCCn1cc(F)cc(c1=O)[C@H]1C[C@H](F)CN31	0.23
Nc1nn2ccc3nc2c1C(=O)NCCOc1ncc(F)cc1C1CCCN31 (stereo not drawn)	0.8
